pIC50: −log10 of the molar value. Where two headings read alike, the source gives them in different places. Where only a bound is given, the exact number is not on record here.

From patent publication US9409845B2, “Alpha-(3,5-dimethoxybenzylidene)-alpha′-hydrocarbyl methylene cyclic ketone and preparation method thereof” (PHARMAXYN LABORATORIES LTD., priority 2012, dated 2016) come the findings set out here.

For series [1], the system named is human hepatoma HepG2 tumor cell lines. In words: MTT antiproliferation assay, HepG2. It is filed as cell-based. Particulars: for pIC50: MTT, 48 h. Here is the method: (§1) The effects on tumor cell proliferation: the antiproliferative activities of α-(3,5-dimethoxy-benzylidene)-α′-hydrocarbonyl methylene cyclic ketone on human hepatoma HepG2 tumor cell lines and human cutaneous melanoma A16-F10 cell lines were evaluated using methyl thiazolyl tetrazolium (MTT) assay.
(§2) Experimental procedures are performed as follows: tumor cells in DMEM culture medium containing 10% fetal bovine serum, 100 U·mL^−1 penicillin and 100 U·mL^−1 streptomycin were cultured in an incubator under 5% CO2 and saturated humidity at 37. Test compounds were dissolved in dimethyl sulfoxide and then diluted with DMEM culture medium to the corresponding concentration, wherein the final concentration of dimethyl sulfoxide was less than 0.01%.
(§3) Negative control group, the blank control group and experimental groups were separately set up, each group with three double-wells. The negative control group was only added with cells but without the drug, the blank control group wad only added with dimethyl sulfoxide solution. The experimental group was added at each well with 11 μL solution containing different concentrations of the sample to be tested, such that the final concentration of the drug were […]. The cells were cultured for additional 48 h in a incubator with 5% CO2 at 37, subsequently the culture solution was gently sucked out and each well was added with 200 μL 0.5 mg/mL of MTT solution. The cells were cultured for another 6 h, then the MTT culture solution was sucked out and each well was added with 150 μL dimethyl sulfoxide, followed by oscillation dissolved for 10 min. The absorbance OD values in each well were measured at the measurement wavelength 570 nm and the reference wavelength 630 nm using a microplate reader.

The target of series [2] is EGFR (Homo sapiens (Human), UniProt P00533). In words: EGFR kinase autophosphorylation, time-resolved fluorescence. It is filed as biochemical. To be noted: Table 1. Here is the method:
Determination of the inhibitory effect of the compound on EGFR: the kinase activity of EGFR was detected according to time-resolved fluorescence detection technology to evaluate automatic phosphorylation levels. The test compound was dissolved in 100% DMSO, diluted with 25 mM HEPES (pH=7.4) to the desired concentration, added into each well with 10 μL of the test compounds and 10 μL solution containing 5 ng EGFR, then cultured for 10 min at room temperature using the recombinase diluted by 100 mM HEPES with a dilution ratio of 1:80, subsequently added with 10 μL solution containing 20 mM HEPES, 2 mM MnCl2, 100 μM Na3VO4, 1 mM DTT buffer, and 20 μL of 0.1 mM ATP and 50 mM MgCl2 and cultured for 1 h. The positive group in each plate was added with ATP-MgCl2 enzyme, the negative control group without adding with ATP-MgCl2 enzyme, the liquid was sucked out completely after cultured for 1 h, and each well was washed with buffer for three times. The wells were added with 75 μL anti-phosphorylated tyrosine antibody containing 400 ng europium labeling and cultured 1 h, washed, then added with enhancing solution.

Series [3] concerns human cutaneous melanoma A16-F10 cell lines. In words: MTT antiproliferation assay, A16-F10. In kind it is cell-based. Here is the method: as §1, §2, §3
The mark [4] stands for this setting: Homo sapiens, HepG2, Table 2, read-out: Anti-proliferative effect on HepG2 tumor cells IC50.
The mark [5] stands for this setting: Homo sapiens, HepG2, Table 1, read-out: anti-proliferation IC50 Hep G2.
[6] abbreviates: Homo sapiens, A16-F10, Table 1, MTT, 48 h, read-out: anti-proliferation IC50 A16-F10.
[7] abbreviates: Table 1, read-out: anti-proliferation IC50 Hep G2.
[8] abbreviates: Table 1, MTT, 48 h, read-out: anti-proliferation IC50 A16-F10.

EGFR, sequence (P00533 25-1210, species assumed): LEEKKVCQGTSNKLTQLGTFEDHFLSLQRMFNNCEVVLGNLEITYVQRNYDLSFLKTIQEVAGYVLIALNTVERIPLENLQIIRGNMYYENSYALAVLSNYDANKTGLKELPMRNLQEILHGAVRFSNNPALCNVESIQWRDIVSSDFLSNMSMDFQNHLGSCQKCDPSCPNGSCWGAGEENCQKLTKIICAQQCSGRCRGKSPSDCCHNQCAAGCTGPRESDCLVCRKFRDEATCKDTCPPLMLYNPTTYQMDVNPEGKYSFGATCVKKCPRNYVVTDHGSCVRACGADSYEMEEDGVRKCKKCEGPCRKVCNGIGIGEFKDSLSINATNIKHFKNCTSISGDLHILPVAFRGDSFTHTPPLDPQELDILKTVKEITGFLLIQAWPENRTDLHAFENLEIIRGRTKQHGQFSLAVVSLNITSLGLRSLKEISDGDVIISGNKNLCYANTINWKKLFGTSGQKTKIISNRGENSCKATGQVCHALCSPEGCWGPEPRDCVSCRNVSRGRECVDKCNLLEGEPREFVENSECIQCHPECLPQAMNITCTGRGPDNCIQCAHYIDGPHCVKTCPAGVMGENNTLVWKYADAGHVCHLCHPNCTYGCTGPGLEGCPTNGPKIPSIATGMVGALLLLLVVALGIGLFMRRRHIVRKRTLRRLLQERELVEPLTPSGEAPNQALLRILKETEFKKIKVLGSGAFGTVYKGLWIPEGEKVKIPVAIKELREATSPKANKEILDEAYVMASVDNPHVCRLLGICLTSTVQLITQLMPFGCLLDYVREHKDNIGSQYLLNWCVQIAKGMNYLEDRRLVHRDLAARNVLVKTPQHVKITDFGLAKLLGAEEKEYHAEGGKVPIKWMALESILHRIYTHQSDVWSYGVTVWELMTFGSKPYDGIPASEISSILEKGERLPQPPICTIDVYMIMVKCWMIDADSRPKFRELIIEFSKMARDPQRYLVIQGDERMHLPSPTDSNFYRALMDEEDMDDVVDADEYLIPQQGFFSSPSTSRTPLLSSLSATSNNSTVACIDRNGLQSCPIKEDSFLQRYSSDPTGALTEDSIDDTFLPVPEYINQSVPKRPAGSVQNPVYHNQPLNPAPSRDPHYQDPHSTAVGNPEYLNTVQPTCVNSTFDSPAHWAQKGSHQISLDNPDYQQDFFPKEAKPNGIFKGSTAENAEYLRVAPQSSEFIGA

Turning to `COc1cc(/C=C2\CC/C(=C\c3ccc(F)cc3)C2=O)cc(OC)c1` [(2E,5E)-2-(3,5-dimethoxybenzylidene)-5-(4-fluorobenzylidene)cyclopentanone], the pIC50 in series [1] (setting [4]) is 4.10.
As for `COc1cc(/C=C2\CC/C(=C\c3ccccc3)C2=O)cc(OC)c1` [(2E,5E)-2-(3,5-dimethoxybenzylidene)-5-benzylidenecyclopentanone], the pIC50 in series [1] (setting [4]) is 4.95. Also, the “anti-proliferative effect on HepG2 tumor cell lines (in words)” value in series [1] (comparison) is “significantly stronger than curcumin”.
On to `COc1cc(/C=C2\CCC/C(=C\c3cc(OC)cc(OC)c3)C2=O)cc(OC)c1` [(2E,6E)-2,6-bis (3,5-dimethoxybenzylidene)cyclohexanone], for which the pIC50 is 5.07 in series [1] (setting [5]), 5.68 in series [2] and 5.33 in series [3] (setting [6]).
The compound `COc1ccc(/C=C2\CCC/C(=C\c3cc(OC)cc(OC)c3)C2=O)cc1` [(2E,6E)-2-(3,5-dimeth-oxybenzylidene)-6-(4-methoxybenzylidene)cyclohexanone] had a pIC50 in series [2] of 4.73.
Compound `COc1cc(/C=C2\CCC/C(=C\c3ccc(OC)c(O)c3)C2=O)cc(OC)c1` [(2E,6E)-2-(3,5-dimethoxy-benzylidene)-6-(3-hydroxy-4-methoxybenzylidene)cyclohexanone] showed a melting point of 131.2 to 131.6 °C. In series [2], this compound had a pIC50 of 5.27.
`COc1cc(/C=C2\CCC/C(=C\c3ccccc3)C2=O)cc(OC)c1` [(2E,6E)-2-(3,5-dimethoxy-benzylidene)-6-benzylidene cyclohexanone]: the pIC50 in series [2] is 5.77.
On to `COc1cc(/C=C2\CCC/C(=C\c3ccccc3Br)C2=O)cc(OC)c1` [(2E,6E)-2-(3,5-dimethoxybenzyl-idene)-6-(2-bromobenzylidene)cyclohexanone], for which the pIC50 in series [1] (setting [7]) was 4.49; in series [2], 5.09; in series [3] (setting [8]), 4.91.
`COc1cc(/C=C2\CCC/C(=C\c3ccccc3Cl)C2=O)cc(OC)c1` [(2E,6E)-2-(3,5-dimethoxybenzyl-idene)-6-(2-chlorobenzylidene)cyclohexanone]: the pIC50 in series [2] was 5.81.
Consider `COc1cc(/C=C2\CCC/C(=C\c3ccccc3OC)C2=O)cc(OC)c1` [(2E,6E)-2-(3,5-dimethoxybenzyl-idene)-6-(2-methoxybenzylidene)cyclohexanone], for which the pIC50 in series [1] (setting [7]) and in series [3] (setting [8]) was less than 3.70 in each case.
`COc1cc(/C=C2\CCC/C(=C\c3cccc(Cl)c3)C2=O)cc(OC)c1` [(2E,6E)-2-(3,5-dimethoxybenzyl-idene)-6-(3-chlorobenzylidene)cyclohexanone]: in series [2], the pIC50 was 5.64.
On the same count and under the same terms, the value for `COc1cccc(/C=C2\CCC/C(=C\c3cc(OC)cc(OC)c3)C2=O)c1` [(2E,6E)-2-(3,5-dimethoxybenzyl-idene)-6-(3-methoxybenzylidene)cyclohexanone] was 5.21; that for `COc1cc(/C=C2\CCC/C(=C\c3ccc(Br)cc3)C2=O)cc(OC)c1` [(2E,6E)-2-(3,5-dimethoxybenzyl-idene)-6-(4-bromophenyl-methylene)cyclohexanone] was 5.15.
In the case of `COc1cc(/C=C2\CCC/C(=C\c3ccc(Cl)cc3)C2=O)cc(OC)c1` [(2E,6E)-2-(3,5-dimethoxybenzyl-idene)-6-(4-chlorobenzylidene)cyclohexanone], the pIC50 in series [1] (setting [7]) is 4.59; in series [2] it was 4.81; in series [3] (setting [8]), 4.73.
For `COc1cc(/C=C2\CCC/C(=C\c3ccc(N(C)C)cc3)C2=O)cc(OC)c1` [(2E,6E)-2-(3,5-dimethoxybenzyl-idene)-6-(4-dimethylaminobenzylidene)cyclohexanone], in that order: 4.93, 5.40 and 5.23.
The like results for `COc1cc(/C=C2\CCC/C(=C\c3ccc(F)cc3)C2=O)cc(OC)c1` [(2E,6E)-2-(3,5-dimethoxybenzyl-idene)-6-(4-fluorobenzylidene)cyclohexanone] were, in that order, 4.92, 5.24 and 5.12.
Compound `COc1cc(/C=C2\CCC/C(=C\c3ccc(S(C)(=O)=O)cc3)C2=O)cc(OC)c1` [(2E,6E)-2-(3,5-dimethoxybenzyl-idene)-6-(4-methylsulphonylbenzylidene)cyclohexanone] gave a pIC50 in series [2] of 5.71.
With `COc1cc(/C=C2\CCC/C(=C\C3CCCCC3)C2=O)cc(OC)c1` [(2E,6E)-2-(3,5-dimethoxybenzyl-idene)-6-(cyclohexylmethylene)cyclohexanone], the results for the pIC50 in series [1] (setting [7]), in series [2] and in series [3] (setting [8]) were 4.77, 5.12 and 4.91, respectively.
As for `COc1cc(/C=C2\CCC/C(=C\c3ccccc3F)C2=O)cc(OC)c1` [(2E,6E)-2-(3,5-dimethoxybenzylidene)-6-(2-fluorobenzylidene)cyclohexanone], the pIC50 in series [1] (setting [5]) was 5.12; in series [2], 5.66; in series [3] (setting [6]), 5.25.
As to `COc1cc(/C=C2\CCC/C(=C\c3ccc(O)c(O)c3)C2=O)cc(OC)c1` [(2E,6E)-2-(3,5-dimethoxybenzylidene)-6-(3,4-dihydroxybenzylidene)cyclohexanone], the pIC50 in series [1] (setting [5]) was 6.00; in series [2] it was 6.37; in series [3] (setting [6]), 6.15; in series [3] (Homo sapiens, A16-F10, cell line not given, read-out: anti-tumor activity IC50), more than 6.00.
The compound `COc1cc(/C=C2\CCC/C(=C\c3cc(C(C)(C)C)c(O)c(C(C)(C)C)c3)C2=O)cc(OC)c1` [(2E,6E)-2-(3,5-dimethoxybenzylidene)-6-(3,5-di-t-butyl-4-hydroxybenzylidene)cyclohexanone] gave a pIC50 in series [2] of 5.32.
Take `COc1cc(/C=C2\CCC/C(=C\c3cccc(Br)c3)C2=O)cc(OC)c1` [(2E,6E)-2-(3,5-dimethoxybenzylidene)-6-(3-bromobenzylidene)cyclohexanone]: the pIC50 in series [2] is 5.16.
For the compound `COc1cc(/C=C2\CCC/C(=C\c3ccc(O)cc3)C2=O)cc(OC)c1` [(2E,6E)-2-(3,5-dimethoxybenzylidene)-6-(4-hydroxybenzylidene)cyclohexanone], the pIC50 in series [2] was 5.33.
Take `COc1cc(/C=C/C(=O)CC(=O)/C=C/c2ccc(O)c(OC)c2)ccc1O` [curcumin, reference compound]: the pIC50 in series [3] (setting [6]) was 4.73.
Same read-out and setting: in the case of `C#Cc1cccc(Nc2ncnc3cc(OCCOC)c(OCCOC)cc23)c1` [erlotinib, reference compound] it was 6.70.
